Data on 18 compounds can be found in ChEMBL document CHEMBL5291721, “A preclinical secondary pharmacology resource illuminates target-adverse drug reaction associations of marketed drugs” (Nat Commun, 2023).

The structures appear in SMILES notation.

The AC50 is the concentration at which the activity in the assay is half-maximal.

In test [1] the target is T1, Muscarinic acetylcholine receptor M1 (Homo sapiens, UniProt P11229).
T1 sequence (P11229 whole entry): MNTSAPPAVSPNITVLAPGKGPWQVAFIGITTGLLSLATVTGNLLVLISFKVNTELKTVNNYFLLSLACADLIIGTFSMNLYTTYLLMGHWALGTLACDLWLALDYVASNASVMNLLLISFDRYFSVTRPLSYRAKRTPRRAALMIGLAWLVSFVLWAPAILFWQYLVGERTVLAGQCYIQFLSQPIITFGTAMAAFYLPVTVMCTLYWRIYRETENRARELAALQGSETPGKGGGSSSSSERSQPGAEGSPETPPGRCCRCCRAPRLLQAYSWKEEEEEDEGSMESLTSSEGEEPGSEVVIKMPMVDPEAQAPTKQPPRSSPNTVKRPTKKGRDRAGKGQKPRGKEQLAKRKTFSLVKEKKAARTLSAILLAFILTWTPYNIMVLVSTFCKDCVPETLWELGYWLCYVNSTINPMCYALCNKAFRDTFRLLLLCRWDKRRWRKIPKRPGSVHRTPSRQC
In kind it is functional, cell-based.

Test [2] concerns the target Histamine H3 receptor (Homo sapiens, UniProt Q9Y5N1).
The target in test [3] is Sodium-dependent dopamine transporter (Homo sapiens, UniProt Q01959).
Test [4] has as its target T2, Amine oxidase [flavin-containing] A (Homo sapiens, UniProt P21397).
T2 sequence (P21397 whole entry): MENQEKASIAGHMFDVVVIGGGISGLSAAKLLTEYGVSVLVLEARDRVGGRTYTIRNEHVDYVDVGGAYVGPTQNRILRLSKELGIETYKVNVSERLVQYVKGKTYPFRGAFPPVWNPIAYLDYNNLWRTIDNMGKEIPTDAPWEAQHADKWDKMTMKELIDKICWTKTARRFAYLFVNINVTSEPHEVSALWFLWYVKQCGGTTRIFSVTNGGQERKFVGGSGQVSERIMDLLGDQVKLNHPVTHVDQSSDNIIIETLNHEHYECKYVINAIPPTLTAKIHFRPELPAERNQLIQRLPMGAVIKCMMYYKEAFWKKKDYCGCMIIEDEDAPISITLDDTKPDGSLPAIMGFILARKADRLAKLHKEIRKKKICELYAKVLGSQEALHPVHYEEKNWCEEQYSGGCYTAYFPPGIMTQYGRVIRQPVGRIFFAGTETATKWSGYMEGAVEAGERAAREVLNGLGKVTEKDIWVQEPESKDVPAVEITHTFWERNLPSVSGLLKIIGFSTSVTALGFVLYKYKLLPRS
The test is classed as functional.

The target of test [5] is Vascular endothelial growth factor receptor 2 (Homo sapiens, UniProt P35968). In kind it is functional.
Test [6] deals with T3, Muscarinic acetylcholine receptor M2 (Homo sapiens, UniProt P08172).
T3 sequence (P08172 whole entry): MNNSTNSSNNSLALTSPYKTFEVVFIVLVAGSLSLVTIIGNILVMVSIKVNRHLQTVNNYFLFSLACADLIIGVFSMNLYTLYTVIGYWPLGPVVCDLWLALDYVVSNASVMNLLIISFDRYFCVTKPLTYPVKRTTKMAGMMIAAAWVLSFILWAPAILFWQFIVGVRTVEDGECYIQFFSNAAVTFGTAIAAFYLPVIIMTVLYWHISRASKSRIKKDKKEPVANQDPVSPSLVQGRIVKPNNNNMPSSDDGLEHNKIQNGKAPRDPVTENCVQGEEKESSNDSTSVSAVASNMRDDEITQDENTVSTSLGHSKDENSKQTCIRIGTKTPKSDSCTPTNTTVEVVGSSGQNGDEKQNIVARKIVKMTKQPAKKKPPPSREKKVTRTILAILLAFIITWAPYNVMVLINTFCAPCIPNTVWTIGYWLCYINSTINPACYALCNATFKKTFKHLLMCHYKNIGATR
In kind it is functional, cell-based.

The target of test [7] is T4, Alpha-1A adrenergic receptor (Homo sapiens, UniProt P35348).
T4 sequence (P35348 whole entry): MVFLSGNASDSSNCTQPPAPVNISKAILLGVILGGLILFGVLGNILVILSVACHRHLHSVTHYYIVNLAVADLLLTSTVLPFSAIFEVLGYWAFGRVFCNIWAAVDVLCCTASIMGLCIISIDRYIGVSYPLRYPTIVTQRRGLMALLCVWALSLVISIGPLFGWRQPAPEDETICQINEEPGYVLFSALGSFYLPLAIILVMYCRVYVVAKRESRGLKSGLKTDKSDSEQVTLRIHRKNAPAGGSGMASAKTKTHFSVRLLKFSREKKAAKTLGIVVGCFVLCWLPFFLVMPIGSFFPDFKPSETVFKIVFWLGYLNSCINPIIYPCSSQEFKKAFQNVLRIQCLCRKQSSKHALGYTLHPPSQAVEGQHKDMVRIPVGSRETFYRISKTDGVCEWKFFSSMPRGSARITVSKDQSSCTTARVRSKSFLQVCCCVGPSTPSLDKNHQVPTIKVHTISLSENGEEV
In kind it is functional, cell-based.

Test [8] deals with Voltage-dependent L-type calcium channel subunit alpha-1C (Rattus norvegicus, UniProt P22002). In kind it is functional.
For test [9], the target named is T5, Gastrin/cholecystokinin type B receptor (Homo sapiens, UniProt P32239).
T5 sequence (P32239 whole entry): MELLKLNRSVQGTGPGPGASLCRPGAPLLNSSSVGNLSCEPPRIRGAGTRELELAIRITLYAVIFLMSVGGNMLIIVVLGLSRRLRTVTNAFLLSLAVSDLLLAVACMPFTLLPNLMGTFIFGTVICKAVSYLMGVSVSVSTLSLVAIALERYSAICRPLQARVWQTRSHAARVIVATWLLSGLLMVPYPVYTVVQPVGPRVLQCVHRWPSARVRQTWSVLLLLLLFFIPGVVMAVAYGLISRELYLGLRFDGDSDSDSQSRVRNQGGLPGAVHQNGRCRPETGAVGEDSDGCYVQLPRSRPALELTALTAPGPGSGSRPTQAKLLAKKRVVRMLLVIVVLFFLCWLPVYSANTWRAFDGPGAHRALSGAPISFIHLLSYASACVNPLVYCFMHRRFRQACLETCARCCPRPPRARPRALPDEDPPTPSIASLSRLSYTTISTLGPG
Further: assay procedure not described here.

Chain of Histamine H3 receptor (Q9Y5N1 whole entry): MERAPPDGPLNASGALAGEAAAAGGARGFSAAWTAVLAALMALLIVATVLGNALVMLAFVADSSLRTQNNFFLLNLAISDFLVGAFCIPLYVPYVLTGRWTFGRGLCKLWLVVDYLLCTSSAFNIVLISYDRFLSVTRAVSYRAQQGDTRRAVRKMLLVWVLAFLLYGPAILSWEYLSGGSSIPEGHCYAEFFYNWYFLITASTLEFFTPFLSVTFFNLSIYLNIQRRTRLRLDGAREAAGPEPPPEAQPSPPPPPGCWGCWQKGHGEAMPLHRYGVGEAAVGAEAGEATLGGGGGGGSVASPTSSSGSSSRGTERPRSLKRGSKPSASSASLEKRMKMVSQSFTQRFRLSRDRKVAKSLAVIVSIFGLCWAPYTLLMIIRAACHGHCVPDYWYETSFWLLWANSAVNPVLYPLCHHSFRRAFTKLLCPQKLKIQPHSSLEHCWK
Chain of Vascular endothelial growth factor receptor 2 (P35968 whole entry): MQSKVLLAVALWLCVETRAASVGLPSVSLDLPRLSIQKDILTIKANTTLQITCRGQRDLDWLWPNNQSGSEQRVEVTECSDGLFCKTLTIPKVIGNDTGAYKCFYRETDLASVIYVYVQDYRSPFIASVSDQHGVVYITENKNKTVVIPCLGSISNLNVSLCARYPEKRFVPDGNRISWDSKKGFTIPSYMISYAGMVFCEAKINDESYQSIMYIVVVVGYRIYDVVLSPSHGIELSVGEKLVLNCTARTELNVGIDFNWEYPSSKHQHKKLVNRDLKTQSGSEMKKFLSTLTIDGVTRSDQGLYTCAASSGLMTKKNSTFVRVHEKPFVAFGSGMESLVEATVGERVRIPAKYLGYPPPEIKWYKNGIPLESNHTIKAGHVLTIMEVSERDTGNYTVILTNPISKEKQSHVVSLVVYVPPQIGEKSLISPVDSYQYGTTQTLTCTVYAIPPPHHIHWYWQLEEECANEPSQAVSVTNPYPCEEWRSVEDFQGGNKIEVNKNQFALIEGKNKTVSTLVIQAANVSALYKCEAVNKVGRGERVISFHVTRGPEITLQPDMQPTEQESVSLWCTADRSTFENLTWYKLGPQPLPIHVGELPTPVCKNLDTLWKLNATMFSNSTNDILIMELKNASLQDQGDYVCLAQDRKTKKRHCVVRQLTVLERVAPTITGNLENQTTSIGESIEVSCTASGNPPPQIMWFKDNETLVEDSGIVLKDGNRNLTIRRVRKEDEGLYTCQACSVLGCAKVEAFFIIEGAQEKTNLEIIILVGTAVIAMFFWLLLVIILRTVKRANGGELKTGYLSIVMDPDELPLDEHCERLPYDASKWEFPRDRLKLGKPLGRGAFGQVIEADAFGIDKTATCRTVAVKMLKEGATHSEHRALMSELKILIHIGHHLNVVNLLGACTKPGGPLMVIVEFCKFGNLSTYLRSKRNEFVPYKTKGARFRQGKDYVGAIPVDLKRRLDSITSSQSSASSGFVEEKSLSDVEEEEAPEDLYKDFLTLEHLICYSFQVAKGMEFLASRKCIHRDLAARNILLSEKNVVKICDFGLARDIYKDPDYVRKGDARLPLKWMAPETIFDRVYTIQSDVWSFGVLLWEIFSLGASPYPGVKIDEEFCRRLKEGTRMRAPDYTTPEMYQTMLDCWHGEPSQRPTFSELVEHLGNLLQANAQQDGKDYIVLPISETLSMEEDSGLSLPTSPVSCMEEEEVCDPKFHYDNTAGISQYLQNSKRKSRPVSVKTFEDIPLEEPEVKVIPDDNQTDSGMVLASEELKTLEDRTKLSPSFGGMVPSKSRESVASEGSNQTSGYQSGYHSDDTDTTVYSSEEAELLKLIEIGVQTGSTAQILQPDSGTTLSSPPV
Chain of Sodium-dependent dopamine transporter (Q01959 whole entry): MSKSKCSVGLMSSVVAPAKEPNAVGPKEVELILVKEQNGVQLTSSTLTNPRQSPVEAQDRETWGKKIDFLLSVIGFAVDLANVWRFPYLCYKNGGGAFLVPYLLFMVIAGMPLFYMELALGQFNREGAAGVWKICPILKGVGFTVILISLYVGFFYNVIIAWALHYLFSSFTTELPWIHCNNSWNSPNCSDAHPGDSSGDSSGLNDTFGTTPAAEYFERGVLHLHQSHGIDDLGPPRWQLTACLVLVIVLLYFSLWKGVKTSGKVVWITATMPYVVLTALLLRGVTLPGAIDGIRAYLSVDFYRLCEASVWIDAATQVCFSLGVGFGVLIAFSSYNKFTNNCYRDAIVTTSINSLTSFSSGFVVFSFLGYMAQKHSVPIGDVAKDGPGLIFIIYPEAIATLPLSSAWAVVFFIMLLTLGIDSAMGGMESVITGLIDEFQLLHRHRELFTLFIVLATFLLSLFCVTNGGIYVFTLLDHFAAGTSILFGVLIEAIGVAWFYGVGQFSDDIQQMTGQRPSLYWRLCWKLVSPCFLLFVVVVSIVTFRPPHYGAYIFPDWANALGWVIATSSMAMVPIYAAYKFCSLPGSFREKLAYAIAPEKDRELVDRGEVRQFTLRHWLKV
Chain of Voltage-dependent L-type calcium channel subunit alpha-1C (P22002 whole entry): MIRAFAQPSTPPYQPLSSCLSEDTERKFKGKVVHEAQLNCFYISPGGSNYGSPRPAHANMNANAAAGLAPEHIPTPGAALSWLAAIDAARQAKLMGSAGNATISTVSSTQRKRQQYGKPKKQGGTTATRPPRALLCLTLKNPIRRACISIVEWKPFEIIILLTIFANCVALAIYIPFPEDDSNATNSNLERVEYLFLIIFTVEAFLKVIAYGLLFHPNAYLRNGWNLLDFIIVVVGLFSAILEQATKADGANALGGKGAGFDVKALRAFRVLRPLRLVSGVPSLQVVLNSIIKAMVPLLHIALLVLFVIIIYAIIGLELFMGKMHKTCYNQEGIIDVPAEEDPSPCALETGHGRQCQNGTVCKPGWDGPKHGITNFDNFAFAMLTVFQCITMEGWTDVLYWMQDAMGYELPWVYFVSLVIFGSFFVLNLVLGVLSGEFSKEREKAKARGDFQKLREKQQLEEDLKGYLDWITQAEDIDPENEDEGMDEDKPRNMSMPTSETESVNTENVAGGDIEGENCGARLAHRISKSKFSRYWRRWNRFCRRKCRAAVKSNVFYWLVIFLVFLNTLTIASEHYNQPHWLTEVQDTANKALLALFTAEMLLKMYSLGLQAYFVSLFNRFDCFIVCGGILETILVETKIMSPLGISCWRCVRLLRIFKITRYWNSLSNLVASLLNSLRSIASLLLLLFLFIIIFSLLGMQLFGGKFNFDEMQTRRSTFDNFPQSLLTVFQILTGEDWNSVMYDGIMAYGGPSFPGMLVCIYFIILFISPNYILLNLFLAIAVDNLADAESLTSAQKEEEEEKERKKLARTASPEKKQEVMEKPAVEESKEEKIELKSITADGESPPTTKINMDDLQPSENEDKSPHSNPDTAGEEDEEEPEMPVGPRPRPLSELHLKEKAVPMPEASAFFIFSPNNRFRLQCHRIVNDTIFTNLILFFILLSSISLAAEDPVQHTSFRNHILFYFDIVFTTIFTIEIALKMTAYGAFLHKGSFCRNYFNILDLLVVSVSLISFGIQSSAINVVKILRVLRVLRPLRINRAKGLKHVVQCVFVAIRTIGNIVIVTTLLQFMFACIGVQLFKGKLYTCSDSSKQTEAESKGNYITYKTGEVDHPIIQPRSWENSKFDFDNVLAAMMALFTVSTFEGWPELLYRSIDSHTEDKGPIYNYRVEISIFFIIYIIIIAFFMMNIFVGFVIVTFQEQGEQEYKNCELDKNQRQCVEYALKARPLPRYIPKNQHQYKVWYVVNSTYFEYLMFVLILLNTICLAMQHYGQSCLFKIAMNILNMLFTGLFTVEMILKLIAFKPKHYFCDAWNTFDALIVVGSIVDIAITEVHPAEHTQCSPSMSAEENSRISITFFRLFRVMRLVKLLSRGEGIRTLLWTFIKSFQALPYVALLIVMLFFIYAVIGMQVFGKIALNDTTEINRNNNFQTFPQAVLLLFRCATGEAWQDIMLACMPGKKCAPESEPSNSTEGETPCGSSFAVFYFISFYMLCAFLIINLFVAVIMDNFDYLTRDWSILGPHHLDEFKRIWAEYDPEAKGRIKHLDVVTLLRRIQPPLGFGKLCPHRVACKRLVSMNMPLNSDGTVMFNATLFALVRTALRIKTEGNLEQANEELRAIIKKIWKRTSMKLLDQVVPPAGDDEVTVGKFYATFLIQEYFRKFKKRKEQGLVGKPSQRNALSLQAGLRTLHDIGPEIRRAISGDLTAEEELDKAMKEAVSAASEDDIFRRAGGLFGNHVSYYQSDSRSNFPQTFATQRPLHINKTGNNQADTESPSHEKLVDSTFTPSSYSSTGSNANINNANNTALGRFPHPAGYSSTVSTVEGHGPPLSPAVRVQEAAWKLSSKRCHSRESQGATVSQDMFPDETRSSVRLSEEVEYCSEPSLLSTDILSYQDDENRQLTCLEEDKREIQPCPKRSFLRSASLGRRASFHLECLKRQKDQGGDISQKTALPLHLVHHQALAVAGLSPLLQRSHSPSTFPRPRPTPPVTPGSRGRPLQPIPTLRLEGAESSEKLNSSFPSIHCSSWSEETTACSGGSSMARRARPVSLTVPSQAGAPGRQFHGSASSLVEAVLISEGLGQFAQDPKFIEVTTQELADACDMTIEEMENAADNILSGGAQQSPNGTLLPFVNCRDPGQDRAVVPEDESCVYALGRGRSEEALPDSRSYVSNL

As for `C=CCSCC1Nc2cc(Cl)c(S(N)(=O)=O)cc2S(=O)(=O)N1` (centres undefined) [ALTHIAZIDE], the AC50 in test [1], in [2], in test [3], in test [4] and in [5] was greater than 30 µM in each case.

Consider `CCN(CCCc1ccccc1)CCCc1ccccc1` [ALVERINE], for which the AC50 in test [1] is 0.198 µM; in test [2], greater than 30 µM; in test [3] it was 0.481 µM; in test [4], greater than 30 µM; in test [5], greater than 30 µM.

As to `COc1cc(N2CCC(N3CCN(C)CC3)CC2)ccc1Nc1ncc(Cl)c(Nc2ccccc2P(C)(C)=O)n1` [BRIGATINIB], the AC50 in test [1] is greater than 30 µM; in test [2], 2.53 µM; in test [3], greater than 30 µM; in [4] it was greater than 30 µM; in test [5], 0.183 µM.

As to `CN(C)CCOC(c1ccccc1)c1ccc(Br)cc1` (centres undefined) [BROMODIPHENHYDRAMINE], the AC50 in test [1] is 1.49 µM; in [2], greater than 30 µM; in test [3], 0.757 µM; in test [4], greater than 30 µM; in [5], greater than 30 µM.

With `NC(=O)OCC(O)COc1ccc(Cl)cc1` (centres undefined) [CHLORPHENESIN CARBAMATE], the AC50 in [1], in [2], in [3], in [4] and in test [5] was greater than 30 µM throughout.

As to `CCC(=O)O[C@]1(C(=O)SCF)[C@H](C)C[C@H]2[C@@H]3C[C@H](F)C4=CC(=O)C=C[C@]4(C)[C@@]3(F)[C@@H](O)C[C@@]21C` [FLUTICASONE PROPIONATE], the AC50 in [6], in test [1], in test [2], in test [3], in test [4] and in test [5] was greater than 30 µM throughout. The concentration at half-maximal activity (AC50) in test [7], in test [8] and in [9] was greater than 30 µM throughout.

For `CCC(=O)O[C@]1(C(=O)CCl)[C@@H](C)C[C@H]2[C@@H]3C[C@H](F)C4=CC(=O)C=C[C@]4(C)[C@@]3(F)[C@@H](O)C[C@@]21C` [HALOBETASOL PROPIONATE], the AC50 in [1] was 14.9 µM; in [2], greater than 30 µM; in test [3], greater than 30 µM; in test [4] it was greater than 30 µM; in [5], greater than 30 µM.

For `CC(N)Cc1ccc(O)cc1` (centres undefined) [HYDROXYAMPHETAMINE], the AC50 in test [1], in [2], in test [3], in test [4] and in test [5] was greater than 30 µM each time.

Take `Cc1cc(NC(=O)C2=C(O)c3ccccc3S(=O)(=O)N2C)no1` [ISOXICAM]: the AC50 is greater than 30 µM in test [1]; greater than 30 µM in [2]; greater than 30 µM in test [3]; greater than 30 µM in [4]; 24.4 µM in test [5].

As to `COc1cc2c(cc1OC)CC(=O)N(CCCN(C)C[C@H]1Cc3cc(OC)c(OC)cc31)CC2` [IVABRADINE], the AC50 in [1], in test [2], in test [3], in test [4] and in test [5] was greater than 30 µM throughout.

Take `CN1C(=O)/C(=N\NC(N)=S)c2ccccc21` [METHISAZONE]: the AC50 is greater than 3 µM in [1]; greater than 30 µM in test [2]; greater than 30 µM in test [3]; greater than 30 µM in test [4]; greater than 10 µM in test [5].

For `CCCc1nc(C(C)(C)O)c(C(=O)O)n1Cc1ccc(-c2ccccc2-c2nnn[nH]2)cc1` [OLMESARTAN], the half-maximal activity concentration (AC50) in test [1], in [2], in test [3], in [4] and in test [5] was greater than 30 µM each time.

Turning to `NCC(CC(=O)O)c1ccccc1` (centres undefined) [PHENIBUT], the half-maximal activity concentration (AC50) in [1], in test [2], in test [3], in [4] and in test [5] was greater than 30 µM each time.

With `Cc1ncc(COP(=O)(O)O)c(C=O)c1O` [PYRIDOXAL PHOSPHATE ANHYDROUS], the half-maximal activity concentration (AC50) in [1], in [2], in [3], in test [4] and in [5] was greater than 30 µM each time.

In the case of `c1ccc2c(c1)CCc1ccccc1N2C1CN2CCC1CC2` (centres undefined) [QUINUPRAMINE], the AC50 was 0.0076 µM in test [1]; greater than 30 µM in test [2]; 2.62 µM in test [3]; greater than 30 µM in test [4]; greater than 30 µM in [5].

In the case of `C[C@H](Cc1cc2c(c(C(N)=O)c1)N(CCCO)CC2)NCCOc1ccccc1OCC(F)(F)F` [SILODOSIN], the AC50 was greater than 30 µM in test [1]; greater than 30 µM in [2]; 18.6 µM in test [3]; greater than 30 µM in test [4]; greater than 30 µM in [5].

Take `CC1=CCC(C(C)(C)O)CC1O` (centres undefined) [SOBREROL]: the AC50 in [1], in test [2], in test [3], in [4] and in test [5] was greater than 30 µM in each case.

On to `CCOC(=O)N1CSC[C@H]1C(=O)O` [TELMESTEINE], for which the AC50 in [1], in [2], in [3], in test [4] and in test [5] was greater than 30 µM in each case.
